Results: US20200120909A1, “COMPOSITIONS AND METHODS FOR THE STUDY AND TREATMENT OF ACUTE KIDNEY INJURY” (THE JOHNS HOPKINS UNIVERSITY, priority 2014, published 2020)

Experiments:
Nrf2 [1] = assay: Ex-vivo Nrf2 activation of purified mouse T cells, real-time PCR of Nrf2 target genes; type: cell-based
Description: (§1) FIG. 11. […] RNA isolated from these cells was analyzed by quantitative real-time PCR for expression of Nrf2 target genes, NQO1, HO-1 and GCLM. […] Furthermore, we treated peripheral blood mononuclear cells (PBMCs) from healthy individuals and treated them with CDDO-Me (Bardoxolone), an Nrf2 activator related to triterpenopid derivative CDDO-Im.
Antioxidant Gene Expression Analyses. Total RNA ([…]) from purified T cells was isolated with the RNeasy mini kit (Qiagen, Valencia, Calif.) and reverse transcribed using a high capacity cDNA synthesis kit (Life Technologies). A gene-specific TaqMan primer and probe sets were used to assess transcriptional status of Nrf2, Nqo1, Ho-1, Gclm, and Gclc in Quantstudio 12K flex real-time PCR (Life Technologies). The absolute expression values for each gene were normalized to that of b-actin and the relative gene expression values calculated.

acute kidney injury = settings: pharmacological activation of Nrf2 regulated antioxidant response; cited from earlier work
Nrf2 [2] = assay: Nrf2 target gene expression in treated human peripheral blood mononuclear cells; type: cell-based
Description: as §1

T cells = settings: cited from earlier work; for TNF-a and IFN-g production: after CD3/CD28 activation; for T helper phenotype skewing: pharmacologic activation of Nrf2
[3] = purified T cells from wild type mice, 20 nM and 50 nM, 24 hours

Compound: CC1(C)CC[C@]2(C(=O)n3ccnc3)CC[C@]3(C)[C@H](C(=O)C=C4[C@@]5(C)C=C(C#N)C(=O)C(C)(C)[C@@H]5CC[C@]43C)[C@@H]2C1 [CDDO-Im]
- HO-1 mRNA expression (Nrf2 [1]; [3]): significant increase
- NQO1 mRNA expression (Nrf2 [1]; [3]): significant increase
- activating Nrf2 regulated antioxidant gene expression (Nrf2 [1]; purified mouse T cells, 20 and 50 μM): significantly effective
- protection from acute kidney injury (acute kidney injury): can protect from acute kidney injury
- activating Nrf2 regulated antioxidant gene expression (Nrf2 [2]; human PBMCs, 20 and 50 μM): significantly effective

Compound: COC(=O)[C@]12CCC(C)(C)C[C@H]1[C@H]1C(=O)C=C3[C@@]4(C)C=C(C#N)C(=O)C(C)(C)[C@@H]4CC[C@@]3(C)[C@]1(C)CC2 [CDDO-Me, bardoxolone methyl]
- gene expression of GCLM (Nrf2 [2]; PBMCs from healthy individuals, p=0.01): significant increase
- gene expression of NQO1 (Nrf2 [2]; PBMCs from healthy individuals, p=0.02): significant increase
- gene expression of HO-1 (Nrf2 [2]; PBMCs from healthy individuals, p=0.05): significant increase

Compound: COc1ccc(O)c(C(C)(C)C)c1 [butylated hydroxyanisole]
- TNF-a and IFN-g production (T cells): suppress
- T helper phenotype skewing (T cells): skew T cells toward a Th2 type phenotype

Compound: CC(C)(C)c1cc(O)ccc1O [tertbutylhydroquinone, tert-butylhydroquinone]
- TNF-a and IFN-g production (T cells): suppress
- T helper phenotype skewing (T cells): skew T cells toward a Th2 type phenotype
